Several values for one entry are separate records, joined by “and”; a condition that tells them apart may be missing. Equal values may be shown once.
Legend:
[1] = system: HEK293T cells; experiment: Cytotoxicity: necrosis induction (red fluorescent dye for permeable plasma membranes); type: cell-based; conditions: 1 µM, 24 h, necrotic cell count normalized to 0.1% DMSO, single replicates;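 also: compounds applied in DMEM high glucose with 0.1% FCS and 0.1% DMSO, necrotic HEK293T cells counted by red staining of cells whose plasma membranes had become permeable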
[2] = target: T1, FGFR3 (Homo sapiens, UniProt P22607); experiment: Liability panel screening by DSF: FGFR3; type: binding; conditions: DSF, 20 µM, n=2; read-out: Mean ΔTM FGFR3
T1 construct: made in house
Procedure, shortened: (§1)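 ∆Tm in K was taken from Boltzmann-fitted unfolding inflection points, run in duplicate with a temperature ramp of 3 °C per minute up to 85 °C. Each recombinant protein (2 µM) was in HEPES 10 mM pH 7.5 and NaCl 500 mM, with SYPRO Orange dye at 1:1000.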

[3] = target: T2, GSK3B (Homo sapiens, UniProt P49841); experiment: Liability panel screening by DSF: GSK3B; type: binding; conditions: DSF, 20 µM, n=2; read-out: Mean ΔTM GSK3B
T2 construct: made in house

[4] = target: T3, MAPK1 (Homo sapiens, UniProt P28482); experiment: Liability panel screening by DSF: MAPK1; type: binding; conditions: DSF, 20 µM, n=2; read-out: Mean ΔTM MAPK1
T3 construct: made in house
Procedure, shortened: as §1

[5] = target: T4, TRIM24 (Homo sapiens, UniProt O15164); experiment: Liability panel screening by DSF: TRIM24; type: binding; conditions: DSF, 20 µM, n=2; read-out: Mean ΔTM TRIM24
T4 construct: This panel comprised ten highly ligandable kinases and bromodomains; made in house
T4 sequence (O15164 899-1004 limits assumed): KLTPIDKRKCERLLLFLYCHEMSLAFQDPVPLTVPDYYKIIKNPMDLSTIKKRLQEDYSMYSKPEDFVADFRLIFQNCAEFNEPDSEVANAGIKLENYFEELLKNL
Procedure, shortened: as §1

[6] = system: ATF6 activity in Hela ATF6 reporter cells; experiment: Endoplasmic reticulum stress assay (ATF6 Renilla luciferase reporter, tunicamycin); type: cell-based; conditions: for activity at 1 µM: Homo sapiens, HeLa, single replicates n=1 to n=5, read-out: ER stress [rel. ATF6 activity]
Procedure, shortened: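 HeLa ATF6 Renilla reporter cells were pretreated 4 h with compounds in 0.1% DMSO, then stimulated with tunicamycin (100 ng/mL) for 18 h. Renilla luminescence (DualGlo) was normalized to 0.1% DMSO control; five independent experiments.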

[7] = target: T5, BRPF1 (Homo sapiens, UniProt P55201); experiment: Liability panel screening by DSF: BRPF1; type: binding; conditions: DSF, 20 µM, n=2; read-out: Mean ΔTM BRPF1
T5 construct: This panel comprised ten highly ligandable kinases and bromodomains; made in house
T5 sequence (P55201 628-732 limits assumed): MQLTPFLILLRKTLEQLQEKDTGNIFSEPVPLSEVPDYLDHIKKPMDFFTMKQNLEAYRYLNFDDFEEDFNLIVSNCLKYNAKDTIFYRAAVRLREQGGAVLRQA
Procedure, shortened: as §1

[8] = target: T6, CSNK1D (Homo sapiens, UniProt P48730); experiment: Liability panel screening by DSF: CSNK1D; type: binding; conditions: DSF, 20 µM, n=2; read-out: Mean ΔTM CSNK1D
T6 construct: made in house
Procedure, shortened: as §1

[9] = system: HEK293T cells; experiment: Cytotoxicity: metabolic activity (WST-8 / CCK-8 assay); conditions: 1 µM; HEK293T, 24 h; WST-8; normalized to 0.1% DMSO; single replicates
[10] = system: NF-κB activity in HEK293 NF-κB reporter cells; experiment: NF-kB activity assay (GFP reporter, ionomycin/PMA); type: cell-based; conditions: for Mean NFκB response: n=3
Procedure, shortened: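 HEK293 NF-κB GFP reporter cells given compound in 0.1% DMSO for 4 h, then stimulated with ionomycin 100 ng/mL plus PMA 10 ng/mL. Imaged every 90 min over 24 h; GFP-positive cell count normalized to confluence, three independent biological replicates.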

[11] = system: HEK293T cells; experiment: Cytotoxicity: apoptosis induction (caspase-3/7 DEVD fluorogenic DNA dye); conditions: 1 µM; HEK293T, 24 h; apoptotic cell count normalized to 0.1% DMSO; single replicates
Protocol: Cells were incubated with the test compounds at the indicated concentrations solubilized with 0.1% DMSO for 24 h. Growth-rate was determined based on the change in confluence over 24 h normalized to the change in confluence of cells treated with the 0.1% DMSO control (n = 10). Metabolic activity was determined with a water-soluble tetrazolium-8 (WST-8) assay (n = 8) after 24 h treatment. Apoptotic cells were detected with a fluorogenic DNA dye coupled to the caspase-3/7 recognition sequence (DEVD) after 24 h treatment and the apoptotic cell count was normalized to 0.1% DMSO treated cells (n = 6).
HEK293T cells (German Collection of Microorganisms and Cell Culture GmbH, DSMZ; #ACC305) were cultured in DMEM high glucose, supplemented with 10% fetal calf serum (FCS), sodium pyruvate (1 mM), penicillin (100 µ/mL) and streptomycin (100 µg/mL) at 37 °C and 5% (v/v) CO2, and seeded in pre-coated (10 µg/mL collagen G solution (Merck KgaA; #L7213) for 30 min at 37 °C) 96-well plates (2 × 10^5 cells per well). After 24 h, the cells were treated with the respective NR3 CG compound candidate at the recommended concentration, bexarotene (100 µM) or doxorubicin (30 µM) as positive controls in DMEM high glucose supplemented with 0.1% FCS, penicillin (100 µ/mL), streptomycin (100 µg/mL) and 0.1% DMSO, or 0.1% DMSO alone as an untreated control. Each sample was prepared in at least four biologically independent replicates. […] Thereafter, the medium was aspirated and the cells were incubated for 3 h with 90 µL DMEM high glucose supplemented with 0.2% FCS, penicillin (100 µ/mL) and streptomycin (100 µg/mL) and additionally containing 10 µL Cell Counting Kit 8 solution (CCK-8; MedChemExpress, Monmouth Junction, New York, USA; #HY-K0301), and absorbance was measured at 1 h, 2 h and 3 h of incubation at 450 nm on a Tecan Spark Cyto to assess metabolic activity of the cells. Before drug administration, after the first medium exchange, 24 h after drug administration, and after fluorescence imaging cell confluence was assessed using the Tecan Spark Cyto, to account for changes in cell confluence due to drug administration and cell handling. Compound effects on cell confluence, apoptosis, metabolic activity and necrosis were normalized to the vehicle control of each biological replicate individually.

[12] = system: NR3C1 (GR); conditions: cited from earlier work
[13] = system: NR3C2 (MR); conditions: cited from earlier work
[14] = target: T7, CDK2 (Homo sapiens, UniProt P24941); experiment: Liability panel screening by DSF: CDK2; type: binding; conditions: DSF, 20 µM, n=2; read-out: Mean ΔTM CDK2
T7 construct: made in house
Procedure, shortened: as §1

[15] = system: HEK293T cells; experiment: Cytotoxicity: growth-rate (change in confluence over 24 h); conditions: 1 µM, normalized to 0.1% DMSO control, single replicates (n=1...)
[16] = target: T8, ABL1 (Homo sapiens, UniProt P00519); experiment: Liability panel screening by DSF: ABL1; type: binding; conditions: DSF, 20 µM, n=2; read-out: Mean ΔTM ABL1
T8 construct: made in house
Procedure, shortened: as §1

[17] = target: T9, BRD4 (Homo sapiens, UniProt O60885); experiment: Liability panel screening by DSF: BRD4; type: binding; conditions: DSF, 20 µM, n=2; read-out: Mean ΔTM BRD4
T9 construct: This panel comprised ten highly ligandable kinases and bromodomains; made in house
Procedure, shortened: as §1

[18] = system: Gal4-VP16; type: cell-based; conditions: 1 µM; vs. DMSO ctrl; single replicates n=1-3
[19] = target: T10, AURKA (Homo sapiens, UniProt O14965); experiment: Liability panel screening by DSF: AURKA; type: binding; conditions: DSF, 20 µM, n=2; read-out: Mean ΔTM AURKA
T10 construct: made in house
T10 sequence (O14965 1-403): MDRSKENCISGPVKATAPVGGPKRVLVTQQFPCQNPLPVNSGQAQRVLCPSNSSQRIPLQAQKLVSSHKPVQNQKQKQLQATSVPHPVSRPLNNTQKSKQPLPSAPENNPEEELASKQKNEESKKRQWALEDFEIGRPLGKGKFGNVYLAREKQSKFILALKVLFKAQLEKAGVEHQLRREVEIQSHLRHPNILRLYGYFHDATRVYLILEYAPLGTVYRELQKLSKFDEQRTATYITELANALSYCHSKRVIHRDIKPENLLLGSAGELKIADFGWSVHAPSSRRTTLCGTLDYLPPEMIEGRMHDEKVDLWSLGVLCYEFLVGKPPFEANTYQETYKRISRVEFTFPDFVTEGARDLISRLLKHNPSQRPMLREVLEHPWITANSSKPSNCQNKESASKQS
Procedure, shortened: as §1

[20] = system: NR3C3 (PR); conditions: (lit.); ref Supplementary Table 1; read-out: Potency [nM] EC50, NR3C3 (PR); cited from earlier work

T3 sequence (P28482 whole entry, species assumed): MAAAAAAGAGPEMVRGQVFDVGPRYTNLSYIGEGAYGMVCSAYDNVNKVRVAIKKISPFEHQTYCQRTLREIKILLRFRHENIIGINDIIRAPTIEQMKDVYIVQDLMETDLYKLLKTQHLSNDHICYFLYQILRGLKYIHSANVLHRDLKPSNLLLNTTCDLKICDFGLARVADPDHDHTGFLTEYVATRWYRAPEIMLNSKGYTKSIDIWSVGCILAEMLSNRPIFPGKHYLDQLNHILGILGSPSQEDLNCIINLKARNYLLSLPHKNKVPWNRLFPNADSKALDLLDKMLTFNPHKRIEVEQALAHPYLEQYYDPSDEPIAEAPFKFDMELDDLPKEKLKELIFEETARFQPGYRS
T2 sequence (P49841 whole entry, species assumed): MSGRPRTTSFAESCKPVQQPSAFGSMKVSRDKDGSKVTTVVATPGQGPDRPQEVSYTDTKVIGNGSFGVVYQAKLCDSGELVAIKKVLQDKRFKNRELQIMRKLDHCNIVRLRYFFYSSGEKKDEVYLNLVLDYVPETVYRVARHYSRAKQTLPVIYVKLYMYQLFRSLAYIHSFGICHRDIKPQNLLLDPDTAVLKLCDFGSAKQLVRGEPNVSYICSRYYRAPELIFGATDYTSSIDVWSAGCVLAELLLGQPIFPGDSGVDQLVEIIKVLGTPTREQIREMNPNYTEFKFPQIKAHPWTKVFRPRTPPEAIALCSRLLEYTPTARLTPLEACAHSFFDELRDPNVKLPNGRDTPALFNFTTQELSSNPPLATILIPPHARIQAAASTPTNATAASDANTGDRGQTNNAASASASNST
T6 sequence (P48730 whole entry, species assumed): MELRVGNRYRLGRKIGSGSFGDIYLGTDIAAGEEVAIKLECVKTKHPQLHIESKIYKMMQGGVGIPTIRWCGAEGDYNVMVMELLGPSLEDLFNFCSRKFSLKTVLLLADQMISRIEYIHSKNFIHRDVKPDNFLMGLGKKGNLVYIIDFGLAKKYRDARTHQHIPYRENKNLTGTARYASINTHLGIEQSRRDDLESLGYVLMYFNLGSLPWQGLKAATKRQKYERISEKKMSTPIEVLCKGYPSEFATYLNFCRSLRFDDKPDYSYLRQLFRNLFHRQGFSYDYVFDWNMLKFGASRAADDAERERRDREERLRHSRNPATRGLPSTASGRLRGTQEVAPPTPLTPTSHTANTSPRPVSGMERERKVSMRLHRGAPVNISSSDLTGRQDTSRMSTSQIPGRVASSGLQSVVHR
T8 sequence (P00519 whole entry, species assumed): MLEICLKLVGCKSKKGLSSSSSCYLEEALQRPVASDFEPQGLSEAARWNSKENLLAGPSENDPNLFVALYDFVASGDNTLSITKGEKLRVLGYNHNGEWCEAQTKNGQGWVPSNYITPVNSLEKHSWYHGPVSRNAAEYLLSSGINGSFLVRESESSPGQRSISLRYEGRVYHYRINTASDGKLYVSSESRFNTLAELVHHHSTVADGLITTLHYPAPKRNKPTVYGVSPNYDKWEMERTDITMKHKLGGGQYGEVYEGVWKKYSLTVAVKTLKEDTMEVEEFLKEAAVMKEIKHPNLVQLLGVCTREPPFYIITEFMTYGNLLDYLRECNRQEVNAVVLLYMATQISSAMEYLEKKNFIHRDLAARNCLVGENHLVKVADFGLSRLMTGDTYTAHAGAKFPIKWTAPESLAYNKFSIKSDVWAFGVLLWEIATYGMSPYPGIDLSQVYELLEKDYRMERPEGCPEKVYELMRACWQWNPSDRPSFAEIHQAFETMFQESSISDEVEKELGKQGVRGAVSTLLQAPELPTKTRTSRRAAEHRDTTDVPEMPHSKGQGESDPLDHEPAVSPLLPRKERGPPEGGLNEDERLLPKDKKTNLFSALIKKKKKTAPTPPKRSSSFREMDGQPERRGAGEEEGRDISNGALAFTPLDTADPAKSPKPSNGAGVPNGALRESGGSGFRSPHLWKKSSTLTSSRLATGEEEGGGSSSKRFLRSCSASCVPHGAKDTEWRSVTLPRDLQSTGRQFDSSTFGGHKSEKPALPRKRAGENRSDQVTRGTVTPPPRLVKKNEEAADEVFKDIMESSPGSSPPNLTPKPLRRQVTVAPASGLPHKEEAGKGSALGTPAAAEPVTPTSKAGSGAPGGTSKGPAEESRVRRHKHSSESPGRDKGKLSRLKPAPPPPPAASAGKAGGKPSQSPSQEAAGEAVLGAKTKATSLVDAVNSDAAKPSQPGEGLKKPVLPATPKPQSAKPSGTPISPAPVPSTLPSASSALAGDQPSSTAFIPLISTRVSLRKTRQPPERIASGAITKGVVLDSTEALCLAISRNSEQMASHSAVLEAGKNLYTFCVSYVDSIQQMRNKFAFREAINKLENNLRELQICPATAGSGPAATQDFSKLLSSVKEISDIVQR
T1 sequence (P22607 23-806, species assumed): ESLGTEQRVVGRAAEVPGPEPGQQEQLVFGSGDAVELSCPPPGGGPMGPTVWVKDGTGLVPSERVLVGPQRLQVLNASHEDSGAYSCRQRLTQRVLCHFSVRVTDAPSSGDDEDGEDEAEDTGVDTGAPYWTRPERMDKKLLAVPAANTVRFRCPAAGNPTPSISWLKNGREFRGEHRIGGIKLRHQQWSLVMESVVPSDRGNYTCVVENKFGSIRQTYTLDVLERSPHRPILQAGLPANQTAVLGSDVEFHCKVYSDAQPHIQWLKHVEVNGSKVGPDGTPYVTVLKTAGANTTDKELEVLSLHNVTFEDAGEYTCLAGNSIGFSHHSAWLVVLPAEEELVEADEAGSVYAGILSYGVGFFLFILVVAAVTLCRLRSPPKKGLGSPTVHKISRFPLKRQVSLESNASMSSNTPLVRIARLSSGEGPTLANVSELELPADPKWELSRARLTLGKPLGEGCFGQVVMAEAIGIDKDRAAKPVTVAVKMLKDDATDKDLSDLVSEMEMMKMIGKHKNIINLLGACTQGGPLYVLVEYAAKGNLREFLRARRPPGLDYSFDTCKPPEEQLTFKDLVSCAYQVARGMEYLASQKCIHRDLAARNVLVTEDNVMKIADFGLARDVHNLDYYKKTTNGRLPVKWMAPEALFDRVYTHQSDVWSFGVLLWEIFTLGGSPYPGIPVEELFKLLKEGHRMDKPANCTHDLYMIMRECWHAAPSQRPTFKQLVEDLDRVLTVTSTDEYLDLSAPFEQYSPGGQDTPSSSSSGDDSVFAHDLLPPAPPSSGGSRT

Compound	Necrosis induction [NI] [1]	ΔTm at 20 µM [3] [°C]	ΔTm at 20 µM [4] [°C]	ΔTm at 20 µM [5] [°C]	activity at 1 µM [6] [%]	ΔTm at 20 µM [7] [°C]	ΔTm at 20 µM [8] [°C]	Mean NFκB response ([10]; 1 µM, 1,5 h)	Mean NFκB response ([10]; 1 µM, 4,5 h)	Mean NFκB response ([10]; 1 µM, 7,5 h)	Mean NFκB response ([10]; 1 µM, 10,5 h)	Mean NFκB response ([10]; 1 µM, 13,5 h)	Mean NFκB response ([10]; 1 µM, 16,6 h)	Mean NFκB response ([10]; 1 µM, 19,5 h)	Mean NFκB response ([10]; 1 µM, 22,5 h)	Mean NFκB response ([10]; 1 µM, 3 h)	Mean NFκB response ([10]; 1 µM, 6 h)	Mean NFκB response ([10]; 1 µM, 9 h)	Mean NFκB response ([10]; 1 µM, 12 h)	Mean NFκB response ([10]; 1 µM, 15 h)	other results
CC(=O)OCC(=O)[C@@]1(O)CC[C@H]2[C@@H]3CCC4=CC(=O)CC[C@]4(C)[C@@]3(F)[C@@H](O)C[C@@]21C [Fludrocortisone acetate]	1.13 and 1.14 and 1.54 and 1.19	-0.61	0.55	-0.96	82	-0.43	-0.08	3820.94 GFP+-cells/confluence ∙ 1000	4296.72 GFP+-cells/confluence ∙ 1000	6095.26 GFP+-cells/confluence ∙ 1000	8052.10 GFP+-cells/confluence ∙ 1000	9784.85 GFP+-cells/confluence ∙ 1000	11376.50 GFP+-cells/confluence ∙ 1000	12926.78 GFP+-cells/confluence ∙ 1000	13912.05 GFP+-cells/confluence ∙ 1000	3762.70 GFP+-cells/confluence ∙ 1000	5124.39 GFP+-cells/confluence ∙ 1000	7003.20 GFP+-cells/confluence ∙ 1000	8806.82 GFP+-cells/confluence ∙ 1000	10595.86 GFP+-cells/confluence ∙ 1000	ΔTm at 20 µM [2]: -0.06 °C; ATF6 activity (tunicamycin-induced endoplasmic reticulum stress) ([6]; Hela ATF6 reporter cells, tunicamycin 100 ng/mL, 18 h, compounds at recommended concentrations, n = 5): Consistently weaker ATF6 activity; Metabolic activity [MA] [9]: 1.08 (2×) and 0.93 and 1.06 and 1.01 and 0.96 and 1.04 and 1.00; Mean NFκB response ([10]; 1 µM, 18 h): 12286.70 GFP+-cells/confluence ∙ 1000; Mean NFκB response ([10]; 1 µM, 21 h): 13535.05 GFP+-cells/confluence ∙ 1000; Mean NFκB response ([10]; 1 µM, 24 h): 14315.67 GFP+-cells/confluence ∙ 1000; NF-κB activity (inflammatory response to ionomycin/PMA) ([10]; HEK293 NF-κB reporter cells, compounds at recommended concentrations, imaged over 24 h, n = 3): consistently delayed and strongly diminished NF-κB activity; Apoptosis induction [AI] [11]: 1.14 and 1.39 and 1.56 and 1.37 and 1.13 and 1.61; EC50 ([12]; (lit.), ref Supplementary Table 1, read-out: Potency [nM] EC50, NR3C1 (GR)): 4 nM; rel. activity from literature, NR3C1 (GR): fold activation [12]: ~ 1000 fold; rel. activity from literature, NR3C2 (MR): fold activation [13]: ~ 41 fold; ΔTm at 20 µM [14]: -0.73 °C; Growth rate [GR] [15]: 1.03 and 5.01 and 1.16 and 1.40 and 1.04 and 0.96 and 0.90 and 1.39 and 3.00 and 9.23; ΔTm at 20 µM [16]: -0.12 °C; ΔTm at 20 µM [17]: -0.79 °C; VP16 control [fold reporter gene activity] [18]: 0.96 fold reporter gene activity and 0.81 fold reporter gene activity and 0.89 fold reporter gene activity; ΔTm at 20 µM [19]: 0.09 °C
N#Cc1ccc(N2N=C3c4ccc(C(=O)O)cc4CC[C@@H]3[C@@H]2C2CCCC2)cc1Cl [PF-03882845]	1.10 and 0.88 and 0.95 and 1.46	0	-9.49	1.43	94	-8.37	-4.9	2659.67 GFP+-cells/confluence ∙ 1000	3143.33 GFP+-cells/confluence ∙ 1000	6360.00 GFP+-cells/confluence ∙ 1000	17053.33 GFP+-cells/confluence ∙ 1000	25306.67 GFP+-cells/confluence ∙ 1000	31613.33 GFP+-cells/confluence ∙ 1000	36320.00 GFP+-cells/confluence ∙ 1000	39133.33 GFP+-cells/confluence ∙ 1000	2686.67 GFP+-cells/confluence ∙ 1000	3810.00 GFP+-cells/confluence ∙ 1000	11590.00 GFP+-cells/confluence ∙ 1000	21213.33 GFP+-cells/confluence ∙ 1000	28830.00 GFP+-cells/confluence ∙ 1000	EC50 [20]: 416 nM; Mean NFκB response ([10]; 1 µM, 18 h): 34136.67 GFP+-cells/confluence ∙ 1000; Mean NFκB response ([10]; 1 µM, 21 h): 37763.33 GFP+-cells/confluence ∙ 1000; Mean NFκB response ([10]; 1 µM, 24 h): 40546.67 GFP+-cells/confluence ∙ 1000; Apoptosis induction [AI] [11]: 0.00 (4×) and 0.46 and 0.70; EC50 ([13]; (lit.), ref Supplementary Table 1, read-out: Potency [nM] EC50, NR3C2 (MR)): 9 nM; ΔTm at 20 µM [14]: -2.04 °C; ΔTm at 20 µM [16]: -2.47 °C; ΔTm at 20 µM [17]: 0 °C; ΔTm at 20 µM [19]: 0.42 °C

Reference: paper PMC11790914, “Chemogenomics for steroid hormone receptors (NR3)” (Communications Chemistry, 2025)
